We go through three compounds from a compilation of properties of binary mixtures (doi:10.1021/ie303238h).

The term viscosity denotes the internal friction of a fluid under shear.

A short description of this data set: xn = mol fraction of the nth substance listed. The note with it: 298.15 K, 100 kPa.

Regarding `CC[n+]1ccn(C)c1.O=S(=O)([N-]S(=O)(=O)C(F)(F)F)C(F)(F)F` + CCCC[n+]1ccn(C)c1.CCOS(=O)(=O)[O-], under “x1 = 1”, the viscosity is 32.55 mPa·s.

Consider `CCCC[n+]1ccn(C)c1.CCOS(=O)(=O)[O-]` + CC[n+]1ccn(C)c1.O=S(=O)([N-]S(=O)(=O)C(F)(F)F)C(F)(F)F, for which the viscosity reads like this: (x2 = 0.1009) 212.4 mPa·s; (x2 = 0.2031) 172.4 mPa·s; (x2 = 0.2951) 139.9 mPa·s; (x2 = 0.4027) 109.3 mPa·s; (x2 = 0.5989) 69.7 mPa·s; (x2 = 0.8024) 47.55 mPa·s. The viscosity (x2 = 0.8996) was 39.59 mPa·s.

Take `CC[n+]1ccn(C)c1.O=S(=O)([N-]S(=O)(=O)C(F)(F)F)C(F)(F)F` + CCOS(=O)(=O)[O-].CC[n+]1ccn(C)c1: the viscosity reads like this: (x1 = 0.2008) 90.6 mPa·s; (x1 = 0.4356) 72.5 mPa·s; (x1 = 0.494) 67.8 mPa·s; (x1 = 0.5982) 58.31 mPa·s; (x1 = 0.6996) 50.07 mPa·s; (x1 = 0.8) 43.24 mPa·s. For the same compound, the viscosity by setting is: (x1 = 0.9025) 37.67 mPa·s; (x1 = 1) 32.55 mPa·s.
